Data published in patent US20130158080A1, “METHODS FOR TREATING HYPERTENSION IN BLACK PATIENTS” (Takeda Pharmaceuticals U.S.A., Inc., priority 2011, published 2013).

Tested on: subjects with moderate to severe hypertension
Test: Same study: safety and tolerability (adverse events, laboratory tests, discontinuations)
Parameters: species or system human
Conditions: in vivo
Description: Randomization was stratified by subject's race: Black and non-Black. Before initiation of treatment, all subjects participated in a 2-week, single-blind, placebo Run-in Period (Days −14 to −1). […] Subjects taking previous antihypertensive agents were required to participate in a 3 week Washout Period (Days −21 to −1).
Safety variables included adverse events, vital signs (including orthostatic vital signs), 12-lead electrocardiogram (ECG) findings, and clinical laboratory test results.
Treatment-emergent adverse events (TEAEs) were tabulated, and vital signs and 12-lead ECG findings were summarized with descriptive statistics. All safety data were presented in the listings.

azilsartan medoxomil potassium plus chlorthalidone [TAK-491CLD]
Mean increases in serum creatinine, blood urea nitrogen, and serum uric acid: more common
